According to patent US20260152487A1 (Sitryx Therapeutics Limited, priority 2021, published 2026):

Molecular target: T1, recombinant human PKM2 (Homo sapiens, UniProt P14618)
T1 construct: His (N); purchased R&D Systems
Assay: Human PKM2 activation assay (Kinase-Glo Plus luminescent detection of generated ATP)
Format: biochemical
Conditions: for Emax: read-out: hPKM2 Emax; for EC50: recombinant human PKM2 activation, 4-parameter logistic fit, read-out: hPKM2 EC50
How it was run: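 Luminescent ATP detection (Kinase-Glo Plus, 15 min, 26 °C) followed a 60 min, 26 °C shaken reaction of compound with […] His-tagged human PKM2, PEP and ADP in imidazole/KCl/MgCl2 buffer with Tween20 and BSA, pH 7.2.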

[1] = percentage activation normalised to DMSO vehicle (LOW) and 5 μM TEPP-46 (HIGH)

T1 sequence (P14618 2-531 limits assumed): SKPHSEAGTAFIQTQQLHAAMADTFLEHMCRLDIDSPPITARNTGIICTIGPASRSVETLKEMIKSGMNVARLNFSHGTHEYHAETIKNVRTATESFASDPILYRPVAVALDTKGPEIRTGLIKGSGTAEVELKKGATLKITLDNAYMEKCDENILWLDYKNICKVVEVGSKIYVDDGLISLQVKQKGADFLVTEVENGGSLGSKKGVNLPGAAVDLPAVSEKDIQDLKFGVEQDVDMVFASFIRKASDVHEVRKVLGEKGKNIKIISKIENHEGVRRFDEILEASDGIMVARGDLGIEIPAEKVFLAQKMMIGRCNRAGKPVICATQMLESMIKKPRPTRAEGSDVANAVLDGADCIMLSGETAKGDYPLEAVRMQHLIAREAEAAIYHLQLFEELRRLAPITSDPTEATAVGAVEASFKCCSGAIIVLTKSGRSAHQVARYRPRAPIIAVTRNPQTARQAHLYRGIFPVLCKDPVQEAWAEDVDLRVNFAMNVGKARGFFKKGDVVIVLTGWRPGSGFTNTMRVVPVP

| Molecule | Emax [1] [%] | EC50 [nM] | hPKM2 Emax [1] [%] |
| --- | --- | --- | --- |
| O=c1c2ccc(S(=O)(=O)c3cnn(CCO)c3)cc2cnn1Cc1cccc(C2CC2)n1 [Example 307] | 94.6 | 72.8 | – |
| Cc1cccc(Cn2ncc3cc(S(=O)(=O)c4cnn(C)c4)ccc3c2=O)n1 [Example 204, 6-((1-methyl-1H-pyrazol-4-yl)sulfonyl)-2-((6-methylpyridin-2-yl)methyl)phthalazin-1(2H)-one] | 122 | 282 | – |
| O=c1c2ccc(S(=O)(=O)c3ccccc3)c(NCCO)c2cnn1Cc1cccnc1O [Example 247, 5-((2-hydroxyethyl)amino)-2-((2-hydroxypyridin-3-yl)methyl)-6-(phenylsulfonyl)phthalazin-1(2H)-one] | 103 | 252 | – |
| O=c1c2ccc(S(=O)(=O)c3ccccc3)cc2cnn1Cc1cc(C2CC2)[nH]n1 [Example 25, 2-((5-cyclopropyl-1H-pyrazol-3-yl)methyl)-6-(phenylsulfonyl)phthalazin-1(2H)-one] | 126 | 198 | – |
| Cc1cc(Cn2ncc3cc(S(=O)(=O)c4cn[nH]c4)ccc3c2=O)nn1C [Example 310] | 107 | 153 | – |
| NC(=O)c1nc(Cn2ncc3cc(S(=O)(=O)c4ccccc4)ccc3c2=O)cs1 [Example 93, 4-((1-oxo-6-(phenylsulfonyl)phthalazin-2(1H)-yl)methyl)thiazole-2-carboxamide] | 108 | 411 | – |
| Cc1ccc(S(=O)(=O)c2ccc3c(=O)n(Cc4cccc(N)c4)ncc3c2)s1 [Example 146, 2-(3-aminobenzyl)-6-((5-methylthiophen-2-yl)sulfonyl)phthalazin-1(2H)-one] | 115 | 75.3 | – |
| Cc1[nH]nc(Cn2ncc3cc(S(=O)(=O)c4cnn(C)c4)ccc3c2=O)c1C [Example 348] | 94.3 | 51.6 | – |
| COc1ccc(Cn2ncc3cc(S(=O)(=O)c4ccccc4F)ccc3c2=O)cn1 [Example 162, 6-(2-fluorophenylsulfonyl)-2-((6-methoxypyridin-3-yl)methyl)phthalazin-1(2H)-one] | 99.5 | 83.4 | – |
| O=c1c2ccc(S(=O)(=O)c3ccc4[nH]ccc4c3)cc2cnn1Cc1cc[nH]n1 [Example 226, 6-((1H-indol-5-yl)sulfonyl)-2-((1H-pyrazol-3-yl)methyl)phthalazin-1(2H)-one] | 114 | 356 | – |
| Cc1cccc(Cn2ncc3cc(S(=O)(=O)c4csc(C(C)O)n4)ccc3c2=O)n1 (centres unmarked) [Example 282, 6-((2-(1-hydroxyethyl)thiazol-4-yl)sulfonyl)-2-((6-methylpyridin-2-yl)methyl)phthalazin-1(2H)-one] | 109 | 155 | – |
| Cc1cc(Cn2ncc3cc(S(=O)(=O)c4cnn(C)c4)ccc3c2=O)n[nH]1 [Example 312] | 102 | 215 | – |
| O=c1c2ccc(S(=O)(=O)c3ccccc3)cc2cnn1Cc1cnc2ccccn12 [Example 261, 2-(imidazo[1,2-a]pyridin-3-ylmethyl)-6-(phenylsulfonyl)phthalazin-1(2H)-one] | 68 | 216 | – |
| COc1ccc(S(=O)(=O)c2ccc3c(=O)n(Cc4c(O)ccnc4O)ncc3c2)cc1 [Example 255, 2-((2,4-dihydroxypyridin-3-yl)methyl)-6-(4-methoxyphenylsulfonyl)phthalazin-1(2H)-one] | 104 | 155 | – |
| Cc1cc(Cn2ncc3cc(S(=O)(=O)c4ccccc4)ccc3c2=O)no1 [Example 80, 2-((5-methylisoxazol-3-yl)methyl)-6-(phenylsulfonyl)phthalazin-1(2H)-one] | 93.2 | 799 | – |
| COc1ccc(Cn2ncc3cc(S(=O)(=O)c4cnc5c(c4)OCCO5)ccc3c2=O)cn1 [Example 130, 6-((2,3-dihydro-[1,4]dioxino[2,3-b]pyridin-7-yl)sulfonyl)-2-((6-methoxypyridin-3-yl)methyl)phthalazin-1(2H)-one] | 57.1 | 224 | – |
| Cn1ccc(Cn2ncc3cc([S+]([O-])c4ccccc4)ncc3c2=O)n1 (centres unmarked) [Example 249, 3-((1-methyl-1H-pyrazol-3-yl)methyl)-7-(phenylsulfinyl)pyrido[3,4-d]pyridazin-4(3H)-one] | 98.1 | 530 | – |
| Cn1ccc(S(=O)(=O)c2ccc3c(=O)n(Cc4ccc5occc5n4)ncc3c2)n1 [Example 336] | 106 | 28.5 | – |
| COc1ccc(Cn2ncc3cc(S(=O)(=O)c4cccc5[nH]ncc45)ccc3c2=O)cn1 [Example 123, 6-((1H-indazol-4-yl)sulfonyl)-2-((6-methoxypyridin-3-yl)methyl)phthalazin-1(2H)-one] | 74.4 | 123 | – |
| COc1ccc(Cn2ncc3cc(S(=O)(=O)c4cnc(OC)cn4)ccc3c2=O)cn1 [Example 177, 6-(5-methoxypyrazin-2-ylsulfonyl)-2-((6-methoxypyridin-3-yl)methyl)phthalazin-1(2H)-one] | 79 | 209 | – |
| Cn1ccc(Cn2ncc3cc(S(=O)(=O)c4ccc(OC(F)(F)F)cc4)ccc3c2=O)n1 [Example 218, 20((1-methyl-1H-pyrazol-3-yl)methyl)-6-((4-(trifluoromethoxy)phenyl)sulfonyl)phthalazin-1(2H)-one] | 116 | 192 | – |
| O=c1c2ccc(S(=O)(=O)c3cnn(C4COC4)c3)cc2cnn1Cc1ccc2c(n1)CCO2 [Example 334] | 96.8 | 23.3 | – |
| Cc1c(Cn2ncc3cc(S(=O)(=O)c4cnn(C)c4)ccc3c2=O)nn2c1OCC2 [Example 355] | 101 | 39.4 | – |
| O=c1c2ccc(S(=O)(=O)c3cc4c(cn3)OCCO4)cc2cnn1Cc1cc[nH]n1 [Example 230, 2-((1H-pyrazol-3-yl)methyl)-6-((2,3-dihydro-[1,4]dioxino[2,3-c]pyridin-7-yl)sulfonyl)phthalazin-1(2H)-one] | 118 | 183 | – |
| 2-(3-aminobenzyl)-6-((2-mathylthiazol-4-yl)sulfonyl)phthalazin-1(2H)-one [Example 151] | – | 36.5 | 92.52 |
| Cc1cc2cc(S(=O)(=O)c3ccc4c(=O)n(Cc5cc[nH]n5)ncc4c3)ccc2o1 [Example 224, 2-((1H-pyrazol-3-yl)methyl)-6-((2-methylbenzofuran-5-yl)sulfonyl)phthalazin-1(2H)-one] | 121 | 43.6 | – |
| Cn1cc(S(=O)(=O)c2ccc3c(=O)n(Cc4cccc(C5(O)COC5)n4)ncc3c2)cn1 [Example 283, 2-((6-(3-hydroxyoxetan-3-yl)pyridin-2-yl)methyl)-6-((1-methyl-1H-pyrazol-4-yl)sulfonyl)phthalazin-1(2H)-one] | 78.6 | 441 | – |
| Cc1[nH]nc(Cn2ncc3cc(S(=O)(=O)c4cc[nH]n4)ccc3c2=O)c1Cl [Example 332] | – | 42.9 | – |
| COc1ccc(Cn2ncc3cc(S(=O)(=O)c4cnn(C)c4C)ccc3c2=O)cn1 [Example 190, 6-(1,5-dimethyl-1H-pyrazol-4-ylsulfonyl)-2-((6-methoxypyridin-3-yl)methyl)phthalazin-1(2H)-one] | 102 | 225 | – |
| Cc1ccc(F)c(Cn2ncc3cc(S(=O)(=O)c4cc[nH]n4)ccc3c2=O)n1 [Example 301] | 119 | 131 | – |
